Measurements reported in US10246455B2, “Histone deacetylase inhibitors” (Taipei Medical University, priority 2014, dated 2019).

Legend:
[1] = test system: KB cell line (oral carcinoma); test: IC50 in human cancer cell lines (inhibiting HDAC): KB; settings: Homo sapiens, read-out: IC50, inhibiting HDAC in human cancer cell lines, KB, oral carcinoma
[2] = test system: PC3 prostate cancer cells; test: Two dimensional cell growth inhibitory assay (MTT): PC3; settings: Homo sapiens
Method: For the two dimensional assay, cancel cells in the logarithmic phase were cultured in complete medium in 96-well plates at 37° C. with 5% CO2 for overnight incubation, and treated with various concentrations of test compounds for three generative times. Cells were then incubated with a serum free medium containing 3-(4,5-dimethylthiazol-2-yl)-2,5-diphenyltetrazolium bromide (MTT) at a final concentration of 0.5 mg/mM for four hours. MTT was converted to formazan by metabolically viable cells. Formazan was then solublized in 50% DMF solution containing 20% SDS at 37° C. overnight. Absorbance was measured at 570 nm using a spectramax M5 microplate reader (Molecular Devices, UK).

[3] = test system: PC3 prostate cancer cells; test: Three dimensional cell growth inhibitory assay (cellular spheres, MTT, microscopy): PC3; assay type: cell-based, human; settings: Homo sapiens
Method: For the three dimensional assay, cells in the logarithmic phase were cultured in 50% Matrigel-containing complete medium in 96-well plates at 37° C. with 5% CO2 for five days incubation, and treated with appropriate concentrations of test compounds for three generative times. Images of spheroids were taken under a microscope, and spheroid cell survival was determined by MTT assays.
The cells (in the 2D culture) and the cellular spheres (in the 3D culture) were treated with test compounds for 72 hours, and then subjected to the MTT colorimetric assay. Each value represents the mean of three independent experiments. Cellular spheres formed in semi-solid and drug effect on cellular spheres were examined using phase-contrast light microscopy.
More specifically, cellular spheres formed in semi-solid and drug effect on cellular spheres were examined using phase-contrast light microscopy. 3D structures of cells were analyzed using 4× magnification, 10× magnification, and 20× magnification.

C6 glioma cell line = test: Cell death in C6 glioma in vitro (LDH assay); assay type: cell-based; settings: rat C6 glioma, 30 uM, after 3 days
Method: Cell death was analyzed by a lactate dehydrogenase (LDH) assay. The culture medium was centrifuged after the experiment and the activity of LDH released into culture media was detected with a LDH cytotoxicity detection kit (Roche). The percentage of cytotoxicity was determined by the equation: [(Experimental group−Control group)/(Triton-100-treated group (100% maximal death)−Control group)]×100%.

KB-VIN10 (KB resistant) = test: IC50 against human cancer cell lines: KB-VIN10; settings: read-out: IC50 ± SD against human cancer cell lines; KB-VIN10, KB resistant
[4] = test system: A549 (non-small-cell lung carcinoma); test: IC50 in human cancer cell lines (inhibiting HDAC): A549; settings: read-out: IC50, inhibiting HDAC in human cancer cell lines; A549, non-small-cell lung carcinoma
[5] = read-out: IC50 value 2D Culture
[6] = Table 6, cell line not given, read-out: IC50 value 3D Culture

Row | Structure (SMILES) | melting point [°C] | IC50 [1] [µM] | other results
1 | O=C(/C=C/c1cccc(S(=O)(=O)N2CCc3ccccc32)c1)NO [Compound 2, (E)-N-hydroxy-3-(3-(indolin-1-ylsulfonyl)phenyl)acrylamide] | 207 to 209 | < 6 | –
2 | O=C(/C=C/c1cccc(S(=O)(=O)n2ccc3ccccc32)c1)NO [Compound 1, (E)-3-(3-(1H-indol-1-ylsulfonyl)phenyl)-N-hydroxyacrylamide] | 188 to 191 | < 6 | –
3 | Nc1ccccc1NC(=O)c1ccc(Cn2ccc3cccnc32)cc1 [Compound 20, 4-((1H-Pyrrolo[2,3-b]pyridin-1-yl)methyl)-N-(2-aminophenyl)benzamide] | 158 to 159 | < 6 | –
4 | O=C(/C=C/c1ccc(S(=O)(=O)N2CCc3cccnc32)cc1)NO [Compound 13, (E)-3-(4-(2,3-Dihydro-1H-pyrrolo[2,3-b]pyridin-1-ylsulfonyl)phenyl)-N-hydroxyacrylamide] | 220 to 223 | < 6 | –
5 | Nc1ccccc1NC(=O)c1ccc(CN2CCc3cccnc32)cc1 [Compound 21, N-(2-Aminophenyl)-4-((2,3-dihydro-1H-pyrrolo[2,3-b]pyridin-1-yl)methyl)benzamide] | 105 to 107 | < 6 | –
6 | O=C(/C=C/c1cccc(S(=O)(=O)n2ccc3cncnc32)c1)NO [Compound 4, (E)-3-(3-((7H-Pyrrolo[2,3-d]pyrimidin-7-yl)sulfonyl)phenyl)-N-hydroxyacrylamide] | – | < 6 | –
7 | O=C(/C=C/c1ccc(S(=O)(=O)n2ccc3ccncc32)cc1)NO [Compound 11, (E)-3-(4-(1H-Pyrrolo[2,3-c]pyridin-1-ylsulfonyl)phenyl)-N-hydroxyacrylamide] | 167 to 169 | < 6 | –
8 | O=C(NO)c1ccc(Cn2ccc3cccnc32)cc1 [Compound 23, N-Hydroxy-4-pyrrolo[2,3-b]pyridin-1-ylmethyl-benzamide] | – | < 6 | –
9 | Nc1ccccc1NC(=O)c1ccc(Cn2ccc3ccccc32)cc1 [Compound 14, 4-((1H-Indol-1-yl)methyl)-N-(2-aminophenyl)benzamide] | – | < 6 | –
10 | COc1ccc(S(=O)(=O)N2CCc3cc(C(=O)NO)cnc32)cc1 [Compound 10a, N-hydroxy-1-(4-methoxyphenylsulfonyl)-2,3-dihydro-1H-pyrrolo[2,3-b]pyridine-5-carboxamide] | – | < 6 | –
11 | Nc1ccccc1NC(=O)c1ccc(Cn2ccc3cnccc32)cc1 [Compound 18, 4-((1H-Pyrrolo[3,2-c]pyridin-1-yl)methyl)-N-(2-aminophenyl)benzamide] | 165 to 167 | < 6 | –
12 | O=C(/C=C/c1cccc(S(=O)(=O)n2ccc3ccncc32)c1)NO [Compound 6, (E)-3-(3-(1H-Pyrrolo[2,3-c]pyridin-1-ylsulfonyl)phenyl)-N-hydroxyacrylamide] | 128 to 129 | – | –
13 | O=C(/C=C/c1ccc(S(=O)(=O)n2ncc3ccccc32)cc1)NO [Compound 9, (E)-3-(4-(1H-Indazol-1-ylsulfonyl)phenyl)-N-hydroxyacrylamide] | – | < 6 | –
14 | COc1cccc2c1C(=O)c1c(O)c3c(c(O)c1C2=O)C[C@@](O)(C(=O)CO)C[C@@H]3O[C@H]1C[C@H](N)[C@H](O)[C@H](C)O1 [Adriamycin] | – | – | IC50 ([2]; read-out: 2D Culture): 70 ± 30 nM; IC50 [2, 5]: 70 ± 30 nM; IC50 [3, 6]: 720 ± 40 nM; IC50 ([3]; read-out: 3D Culture): 720 ± 40 nM
15 | O=C(/C=C/c1cccc(S(=O)(=O)N2CCc3cccnc32)c1)NO [Compound 8, (E)-3-(3-(2,3-Dihydro-1H-pyrrolo[2,3-b]pyridin-1-ylsulfonyl)phenyl)-N-hydroxyacrylamide] | 228 to 230 | < 6 | –
16 | Nc1ccccc1NC(=O)c1ccc(Cn2ncc3ccccc32)cc1 [Compound 16, 4-((1H-Indazol-1-yl)methyl)-N-(2-aminophenyl)benzamide] | 185 to 188 | < 6 | –
17 | O=C(/C=C/c1cccc(S(=O)(=O)n2ccc3ncccc32)c1)NO [Compound 5, (E)-3-(3-(1H-Pyrrolo[3,2-b]pyridin-1-ylsulfonyl)phenyl)-N-hydroxyacrylamide] | 148 to 150 | – | –
18 | Nc1ccccc1NC(=O)c1ccc(Cn2ccc3ccncc32)cc1 [Compound 19, 4-((1H-Pyrrolo[2,3-c]pyridin-1-yl)methyl)-N-(2-aminophenyl)-benzamide] | 154 to 155 | < 6 | –
19 | O=C(CCCCCCC(=O)Nc1ccccc1)NO [SAHA, reference compound] | – | – | induction of cell death (LDH) (C6 glioma cell line): about 70%; IC50 (KB-VIN10 (KB resistant)): 1850 ± 526 nM; IC50 [4]: 1540 ± 80 nM
20 | COc1ccc(S(=O)(=O)N2CCc3cc(/C=C/C(=O)Nc4ccccc4N)cnc32)cc1 [Compound 6a, (E)-N-(2-aminophenyl)-3-(1-(4-methoxyphenylsulfonyl)-2,3-dihydro-1H-pyrrolo[2,3-b]pyridin-5-yl)acrylamide] | – | < 6 | –
21 | Nc1ccccc1NC(=O)c1ccc(CN2CCc3ccccc32)cc1 [Compound 15, N-(2-Aminophenyl)-4-(indolin-1-ylmethyl)benzamide] | – | < 6 | –
22 | O=C(/C=C/c1ccc(S(=O)(=O)n2ccc3ncccc32)cc1)NO [Compound 10, (E)-3-(4-(1H-Pyrrolo[3,2-b]pyridin-1-ylsulfonyl)phenyl)-N-hydroxyacrylamide] | 188 to 190 | < 6 | –
23 | CC(=O)O[C@H]1C(=O)[C@@]2(C)[C@H]([C@H](OC(=O)c3ccccc3)[C@]3(O)C[C@H](OC(=O)[C@H](O)[C@@H](NC(=O)c4ccccc4)c4ccccc4)C(C)=C1C3(C)C)[C@]1(OC(C)=O)CO[C@@H]1C[C@@H]2O [Paclitaxel] | – | – | IC50 ([2]; read-out: 2D Culture): 0.2 ± 0.1 nM; IC50 [2, 5]: 0.2 ± 0.1 nM; IC50 [3, 6]: 5850 ± 70 nM; IC50 ([3]; read-out: 3D Culture): 5850 nM
24 | O=C(/C=C/c1ccc(S(=O)(=O)n2ccc3cccnc32)cc1)NO [Compound 12, (E)-3-(4-(1H-Pyrrolo[2,3-b]pyridin-1-ylsulfonyl)phenyl)-N-hydroxyacrylamide] | 169 to 170 | – | –
25 | CC[C@]1(O)C[C@H]2CN(CCc3c([nH]c4ccccc34)[C@@](C(=O)OC)(c3cc4c(cc3OC)N(C=O)[C@H]3[C@@](O)(C(=O)OC)[C@H](OC(C)=O)[C@]5(CC)C=CCN6CC[C@]43[C@@H]65)C2)C1 [Vincristine] | – | – | IC50 ([2]; read-out: 2D Culture): 0.75 ± 0.64 nM; IC50 [2, 5]: 0.75 ± 0.64 nM; IC50 [3, 6]: 2.5 ± 0.71 nM; IC50 ([3]; read-out: 3D Culture): 2.5 ± 0.71 nM
26 | Nc1ccccc1NC(=O)c1ccc(Cn2ccc3ncccc32)cc1 [Compound 17, 4-((1H-Pyrrolo[3,2-b]pyridin-1-yl)methyl)-N-(2-aminophenyl)-benzamide] | 116 to 118 | < 6 | –
